Values of other authors as cited in US8071794B2, “Long wavelength thiol-reactive fluorophores” (Becton, Dickinson and Company, priority 2004, dated 2011).

Settings: changing environment from methanol (polar protic) to toluene (non-polar); cited from earlier work

## CN(C)c1ccc(C2=C(O)C(c3ccc(N(C)C)cc3)=C2O)cc1 [squaraine nucleus III]
  increase in fluorescence quantum yield: 20 fold
